{
  "source": "patent US20070254903A1",
  "about": "“Novel Spiroindoline or Spiroisoquinoline Compounds, Methods of Use and Compositions Thereof” (ARENA PHARMACEUTICALS, INC., priority 2003, published 2007)",
  "note": "pIC50: −log10 of the molar value.",
  "data": [
    {"target": "T1, human Mas receptor (Homo sapiens, UniProt P04201)", "T1 construct": "expressed in transfected cells", "T1 sequence (P04201 1-325)": "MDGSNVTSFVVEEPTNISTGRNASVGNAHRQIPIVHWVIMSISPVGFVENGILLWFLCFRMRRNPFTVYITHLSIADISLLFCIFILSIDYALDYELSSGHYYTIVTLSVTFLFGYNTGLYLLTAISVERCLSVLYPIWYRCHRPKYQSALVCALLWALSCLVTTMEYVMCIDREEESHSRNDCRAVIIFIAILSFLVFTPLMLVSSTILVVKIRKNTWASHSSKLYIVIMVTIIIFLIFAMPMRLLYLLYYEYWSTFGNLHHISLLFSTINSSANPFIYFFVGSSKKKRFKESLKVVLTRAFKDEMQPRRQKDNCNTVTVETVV", "test": "Mas receptor IP3 assay (inverse agonist assay)", "type": "cell-based", "settings": "HEK293 cells over-expressing human Mas receptor; average from several experiments", "description": "The Mas receptor IP3 assay was performed using a mammalian cell line (HEK293) which was transfected with a plasmid containing the human Mas receptor and selected for stable expression of the receptor. For the inverse agonist assay, higher levels of Mas receptor constitutive activity were desired. To achieve this, Mas receptor expression levels were increased by transiently transfecting the same Mas receptor stable cell line with additional human Mas receptor plasmid DNA following standard procedures. These cells were used in the Mas receptor IP3 assay approximately 24 hours post-transfection.\nCells were split into 96-well plates (50,000 cells/well) and allowed to attach for a period of 6 hours. The growth medium was then replaced with medium supplemented with 4 μCi/ml [^3H]myo-inositol (100 μl; Perkin Elmer Life Sciences) and the cells were allowed to incubate for approximately 20 hours. Test compounds were serially diluted in inositol-free media containing 10 mM LiCl. The media in the plates was removed by aspiration, replaced with these test compound solutions and incubated at 37° C. for 1 hour. Following this incubation, the media was removed by aspiration and replaced with buffer containing 0.1M formic acid. The plates were then frozen overnight at −80° C. to achieve complete cell lysis.\nThe following day, the assay plates were thawed at room temperature. The thawed contents were then transfered to 96-well filter plates (Millipore, Multiscreen) pre-loaded with resin (Biorad, AG1-X8 100-200 mesh, formate form). The plate was filtered using a vacuum manifold and the resin was washed multiple times with water. An elution buffer was then applied (200 μl, 0.2M Ammonium formate/0.1M formic acid) and the resulting eluent was collected, under vacuum, in a 96-well collection plate. Aliquots of the eluent (80 μl) were transferred to filter plates (Whatman, Unifilter GF/C) and dried in a 45° C. oven overnight. Dried plates were counted on a scintillation counter following the addition of an appropriate scintillant (Perkin Elmer Life Sciences, Optiphase Supermix or Hi-Safe 3).", "values": [
      {"compound": "C=CCN1CCC2(CC1)CN(C(=O)c1cccc(C(Cl)Cl)c1)c1ccccc12", "note": "[Compound 102, 1′-(allyl)-1,2-dihydro-1-(3-dichloromethyl-benzoyl)-spiro[3H-indole-3,4′-piperidine]]", "pIC50": 6.03},
      {"compound": "C=CCN1CCC2(CC1)CN(C(=O)c1cccc3ccccc13)c1ccc(F)cc12", "note": "[Compound 85, 1′-(allyl)-1,2-dihydro-5-fluoro-1-(naphthalene-1-carbonyl)-spiro[3H-indole-3,4′-piperidine]]", "pIC50": 6.42},
      {"compound": "C=CCN1CCC2(CC1)CN(C(=O)c1ccccc1Cl)c1ccc(F)cc12", "note": "[Compound 69, 1′-(allyl)-1,2-dihydro-5-fluoro-1-(2-chloro-benzoyl)-spiro[3H-indole-3,4′-piperidine]]", "pIC50": 6.42},
      {"compound": "O=C(c1ccccc1F)N1CC2(CCN(CC3CC3)CC2)c2cc(F)ccc21", "note": "[Compound 139, 1′-(cyclopropylmethyl)-1,2-dihydro-5-fluoro-1-(2-fluoro-benzoyl)-spiro[3H-indole-3,4′-piperidine]]", "pIC50": 6.14},
      {"compound": "C=CCN1CCC2(CC1)CN(S(=O)(=O)c1ccc(Cl)cc1Cl)c1ccc(F)cc12", "note": "[Compound 185, 1′-(allyl)-1,2-dihydro-5-fluoro-1-(2,4-dichloro-benzenesulfonyl)-spiro[3H-indole-3,4′-piperidine]]", "pIC50": 6.02},
      {"compound": "O=C(c1ccccc1Cl)N1CC2(CCN(CC3CC3)CC2)c2ccccc21", "note": "[Compound 101, 1′-(cyclopropylmethyl)-1,2-dihydro-1-(2-chloro-benzoyl)-spiro[3H-indole-3,4′-piperidine]]", "pIC50": 6.10}
    ]}
  ]
}
